Measurements published in ChEMBL document CHEMBL3244341, “Potential antiinflammatory compounds. 2. Acidic antiinflammatory 1,2-benzisoxazoles” (J Med Chem, 1979).
The source made the active and inactive calls. No cut-off for these calls is given here.

Key:
[1] = test system: Rattus norvegicus; test: Antiinflammatory activity in rat assessed as reduction in carrageenan-induced foot edema at 50 mg/kg, po relative to phenylbutazone-treated control; assay type: functional
[2] = test system: Rattus norvegicus; test: Antiinflammatory activity in rat assessed as reduction in carrageenan-induced foot edema at 50 mg/kg, po; assay type: functional
[3] = Toxicity in po dosed mouse; assay type: organism-based; conditions: in vivo
[4] = test system: Rattus norvegicus; test: Antiinflammatory activity in rat assessed as reduction in carrageenan-induced foot edema at 50 mg/kg, po bid administered 3 hrs and again 0.5 hrs prior to carrageenan challenge; assay type: functional
[5] = test system: Rattus norvegicus; test: Antiinflammatory activity in rat assessed as reduction in carrageenan-induced foot edema at 50 mg/kg, po bid administered 3 hrs and again 0.5 hrs prior to carrageenan challenge relative to phenylbutazone-treated control; assay type: functional
[6] = test system: Rattus norvegicus; test: Antiinflammatory activity in rat assessed as reduction in carrageenan-induced foot edema at 50 mg/kg, po relative to hydrocortisone-treated control; assay type: functional
[7] = species on record: Rattus norvegicus; test: Antiinflammatory activity against mycobacterial adjuvant-induced arthritis in albino rat assessed as reduction in foot swelling by micrometer analysis; assay type: functional, organism-based
[8] = test system: Rattus norvegicus; test: Antiinflammatory activity in rat assessed as reduction in carrageenan-induced foot edema at 25 mg/kg, po; assay type: functional

O=C(O)Cc1cccc2c(-c3ccc(Cl)cc3)noc12
inhibition in vivo at 50 mg/kg [1]: 49% | inhibition in vivo at 50 mg/kg [2]: 36% | LD50 [3]: 600 mg/kg

O=C(O)Cc1ccc2onc(-c3ccc(Cl)cc3)c2c1
inhibition in vivo at 50 mg/kg [4]: 22% | inhibition in vivo at 50 mg/kg [5]: 36% | LD50 [3]: 600 mg/kg

CC(C(=O)O)c1ccc2c(-c3ccc(Cl)cc3)noc2c1 (configuration not stated)
inhibition in vivo at 50 mg/kg [6]: 38% | inhibition in vivo at 50 mg/kg [2]: 46% | LD50 [3]: 600 mg/kg

CC(C(=O)O)c1ccc2c(-c3ccc(F)cc3)noc2c1 (configuration not stated)
inhibition in vivo at 50 mg/kg [1]: 57% | inhibition in vivo at 50 mg/kg [2]: 37% | LD50 [3]: 400 mg/kg

CC(C(=O)O)c1cccc2c(-c3ccccc3)noc12 (configuration not stated)
inhibition in vivo at 50 mg/kg [1]: 32% | inhibition in vivo at 50 mg/kg [2]: 42% | LD50 [3]: 1600 mg/kg

CC(C(=O)O)c1ccc2onc(-c3ccc(Cl)cc3)c2c1 (configuration not stated)
inhibition in vivo at 50 mg/kg [6]: 38% | inhibition in vivo at 50 mg/kg [2]: 18% | LD50 [3]: 800 mg/kg

CC(C(=O)O)c1cccc2c(-c3ccc(Cl)cc3)noc12 (configuration not stated)
inhibition [7]: Active | inhibition in vivo at 25 mg/kg [8]: 46% | inhibition in vivo at 50 mg/kg [1]: 48% | LD50 [3]: 200 mg/kg
